Measured values published in ChEMBL document CHEMBL5236598, “Lead Optimization and Avoidance of Metabolic-perturbing Motif Developing Novel Diarylpyrimidines as Potent HIV-1 NNRTIs” (J Med Chem, 2022).

What was measured:
[1] = tested on: Human immunodeficiency virus 1; experiment: Antiviral activity against wild type HIV-1 IIIB infected in human MT4 cells assessed as protection against virus-induced cytopathic effect incubated for 5 days by MTT assay; format: functional, organism-based; settings: Human immunodeficiency virus 1, IIIB, MT4, 120 h
[2] = tested on: Human immunodeficiency virus 1; experiment: Antiviral activity against HIV-1 RES056 harboring RT K103N/Y181C double mutant infected in human MT4 cells assessed as protection against virus-induced cytopathic effect incubated for 5 days by MTT assay; format: functional, organism-based; settings: Human immunodeficiency virus 1, RES056, MT4, 120 h
[3] = Cytotoxicity against human MT4 cells assessed as reduction in cell viability measured after 5 days by MTT assay; format: toxicity, cell-based; settings: time 5 day
[4] = Selectivity index, ratio of CC50 for cytotoxicity against human MT4 cells to EC50 for antiviral activity against wild type HIV-1 IIIB infected in human MT4 cells; format: toxicity, cell-based; settings: read-out: Ratio CC50/EC50
[5] = Selectivity index, ratio of CC50 for cytotoxicity against human MT4 cells to EC50 for antiviral activity against HIV-1 RES056 harboring RT K103N/Y181C double mutant infected in human MT4 cells; format: toxicity, cell-based; settings: read-out: Ratio CC50/EC50

SMILES | EC50 [1] | EC50 [2] | CC50 at 120 h [3] | selectivity ratio [4] | selectivity ratio [5]
N#C/C=C/c1cc(F)c(Oc2nc(Nc3ccc(C#N)c(F)c3)nc3cc[nH]c23)c(F)c1 | 0.038 µM | 0.63 µM | 10.2 µM | 268 | 16
N#C/C=C/c1cc(F)c(Oc2nc(Nc3ccc(C#N)nc3)nc3c2COC3)c(F)c1 | 0.00577 µM | 12.2 µM | 243 µM | 42100 | 20
Cc1cc(-c2ccc(C#N)cc2)cc(C)c1Oc1nc(Nc2ccc(C#N)nc2)nc2sccc12 | 0.0109 µM | 1.53 µM | 181 µM | 16600 | 119
Cc1cc(C#N)cc(C)c1Oc1nc(NC2CCN(c3ccc([N+](=O)[O-])cc3)CC2)nc2sccc12 | 0.0206 µM | 53.8 µM | > 249 µM | > 12100 | > 5
Cc1cc(C#N)cc(C)c1Oc1nc(NC2CCN(c3c(F)cc([N+](=O)[O-])cc3F)CC2)nc2ccsc12 | 0.057 µM | > 30.3 µM | 740 µM | 12900 | < 1
Cc1cc(C#N)cc(C)c1Oc1nc(NC2CCN(c3ccc(N)cc3)CC2)nc2sccc12 | 0.0359 µM | 1.74 µM | 31 µM | 864 | 18
N#C/C=C/c1cc(F)c(Oc2nc(Nc3ccc(C#N)c(F)c3)nc3ccsc23)c(F)c1 | 0.109 µM | 6.71 µM | 96 µM | 878 | 14
Cc1cc(/C=C/C#N)cc(C)c1Oc1nc(NC2CCN(c3ccc(N)cc3F)CC2)nc2sccc12 | 0.0325 µM | 1.06 µM | 13.6 µM | 418 | 13
Cc1cc(C#N)cc(C)c1Oc1nc(NC2CCN(c3ccc([N+](=O)[O-])cc3F)CC2)nc2sccc12 | 0.04 µM | > 37.4 µM | 37.4 µM | 935 | < 1
Cc1cc(/C=C/C#N)cc(C)c1Oc1nc(NC2CCN(c3c(F)cc([N+](=O)[O-])cc3F)CC2)nc2sccc12 | 0.068 µM | 27.4 µM | > 222 µM | > 3260 | > 8
Cc1cc(C#N)cc(C)c1Oc1nc(NC2CCN(c3ccc([N+](=O)[O-])cc3F)CC2)nc2ccsc12 | 0.0321 µM | > 30.3 µM | 740 µM | 23100 | < 1
N#C/C=C/c1cc(F)c(Oc2nc(Nc3ccc(C#N)nc3)nc3cc[nH]c23)c(F)c1 | 0.147 µM | > 29 µM | 29 µM | 197 | < 1
Cc1cc(/C=C/C#N)cc(C)c1Oc1nc(NC2CCN(c3c(F)cc([N+](=O)[O-])cc3F)CC2)nc2ccsc12 | 0.125 µM | 7.67 µM | 99.5 µM | 794 | 13
Cc1cc(-c2ccc(C#N)cc2)cc(C)c1Oc1nc(Nc2ccc(C#N)c(F)c2)nc2sccc12 | 0.0847 µM | 0.493 µM | > 254 µM | > 3010 | > 517
Cc1cc(/C=C/C#N)cc(C)c1Oc1nc(NC2CCN(c3c(F)cc(NS(N)(=O)=O)cc3F)CC2)nc2ccsc12 | 0.0371 µM | 1.94 µM | 20 µM | 539 | 10
Cc1cc(/C=C/C#N)cc(C)c1Oc1nc(Nc2ccc(C#N)nc2)nc2cc[nH]c12 | 1.63 µM | > 7.94 µM | 7.94 µM | 5 | < 1

SMILES | EC50 [1] | EC50 [2] | CC50 at 120 h [3] | selectivity ratio [4] | selectivity ratio [5]
Cc1cc(-c2ccc(F)cc2)cc(C)c1Oc1nc(Nc2ccc(C#N)nc2)nc2ccsc12 | 0.451 µM | > 6.13 µM | 6.13 µM | 14 | < 1
Cc1cc(/C=C/C#N)cc(C)c1Oc1nc(NC2CCN(c3c(F)cc(N)cc3F)CC2)nc2ccsc12 | 0.032 µM | 1.57 µM | 7.88 µM | 246 | 5
Cc1cc(C#N)cc(C)c1Oc1nc(NC2CCN(c3ccc(N)cc3F)CC2)nc2ccsc12 | 0.0404 µM | > 12.2 µM | 12.1 µM | 300 | < 1
Cc1cc(C#N)cc(C)c1Oc1nc(NC2CCN(c3c(F)cc(NS(N)(=O)=O)cc3F)CC2)nc2ccsc12 | 0.0353 µM | 7.51 µM | 12.6 µM | 357 | 2
Cc1cc(C#N)cc(C)c1Oc1nc(NC2CCN(c3ccc(NS(N)(=O)=O)cc3)CC2)nc2sccc12 | 0.0129 µM | 0.633 µM | 24.9 µM | 1930 | 39
Cc1cc(C#N)cc(C)c1Oc1nc(NC2CCN(c3ccc(NS(N)(=O)=O)cc3F)CC2)nc2ccsc12 | 0.0229 µM | 4.93 µM | 24.7 µM | 1080 | 5
Cc1cc(/C=C/C#N)cc(C)c1Oc1nc(NC2CCN(c3ccc(NS(N)(=O)=O)cc3F)CC2)nc2ccsc12 | 0.00746 µM | 0.832 µM | 21.7 µM | 2910 | 26
Cc1cc(/C=C/C#N)cc(C)c1Oc1nc(NC2CCN(c3ccc(N)cc3F)CC2)nc2ccsc12 | 0.0313 µM | 0.876 µM | 23 µM | 735 | 26
Cc1cc(/C=C/C#N)cc(C)c1Oc1nc(NC2CCN(c3ccc([N+](=O)[O-])cc3F)CC2)nc2ccsc12 | 0.14 µM | > 14.2 µM | 14.2 µM | 101 | < 1
Cc1cc(C#N)cc(C)c1Oc1nc(NC2CCN(c3ccc(NS(N)(=O)=O)cc3F)CC2)nc2sccc12 | 0.0079 µM | 3.41 µM | 21.5 µM | 2720 | 6
Cc1cc(C#N)cc(C)c1Oc1nc(NC2CCN(c3ccc(N)cc3F)CC2)nc2sccc12 | 0.0207 µM | 2.6 µM | 26.9 µM | 1300 | 10
N#C/C=C/c1cc(F)c(Oc2nc(Nc3ccc(C#N)nc3)nc3sccc23)c(F)c1 | 0.00698 µM | 7.55 µM | 12.8 µM | 1840 | 1.7
Cc1cc(-c2ccc(F)cc2)cc(C)c1Oc1nc(Nc2ccc(C#N)nc2)nc2sccc12 | 0.802 µM | > 2.23 µM | 2.23 µM | 3 | < 1
Cc1cc(/C=C/C#N)cc(C)c1Oc1nc(Nc2ccc(C#N)c(F)c2)nc2cc[nH]c12 | 4.47 µM | 45.8 µM | 188 µM | 42 | 4.1
Cc1cc(-c2ccc(F)cc2)cc(C)c1Oc1nc(Nc2ccc(C#N)c(F)c2)nc2sccc12 | 0.583 µM | 11.1 µM | 28.9 µM | 50 | 2.6
Cc1cc(-c2ccc(F)cc2)cc(C)c1Oc1nc(Nc2ccc(C#N)c(F)c2)nc2ccsc12 | 0.695 µM | 8.6 µM | 97.3 µM | 140 | 11
